In PMC5855875, “Teixobactin analogues reveal enduracididine to be non-essential for highly potent antibacterial activity and lipid II binding” (Chemical Science, 2017):
Bridge positions count the residues as written; N and C are the ends. Square brackets hold non-standard residues; d marks the D form. Peptide text beside a SMILES is read from it. d(aIle) = CC[C@H](C)[C@@H](N)C(=O)O; dNMeF = CN[C@H](Cc1ccccc1)C(=O)O

These compounds were tested on MRSA ATCC 33591 (assay: microbe, parasite or virus in culture). Settings: ATCC 33591, 24 h.
Method: were grown in Mueller Hinton broth (Oxoid) in triplicate. All incubations were at 37°C. Dilutions were carried out in triplicate. 100 µl of autoclaved Mueller Hinton broth was added to wells 2-12 in a 96-well plate. 200 µl of the peptide was added to well one at a concentration of 256 µg/mL. 100µl of peptide in well one was taken up and pipetted into well two. The mixture was then mixed via pipetting before 100µl was taken up and pipetted into well three. This process was repeated up to well 11. Once […]
peptide present. Thus, the concentrations (in µg/mL) were: 256, 128, 64, 32, 16, 8, 4, 2, 1, 0.5, 0.25 and no peptide present. Each well was then inoculated with 100µl of bacteria that had been diluted to an […]
This was repeated three times. The 96-well plates were then incubated at 37°C for 24 hours. The MIC was determined to be the lowest concentration at which there was no growth visible. […]
was repeated at an altered initial concentration of 64 µg/ml. Therefore, the new concentrations for MIC […]
VIII. MIC testing (extended panel)
Bacterial cultures were grown overnight i n Mueller-Hinton Agar (MHA) plates and adjusted to a final concentration of 10 5 – 106 CFU/ml. 100 µl of inoculum in Meuller -Hinton broth (MHB) was mixed with equal volume of peptides (dissolved in MHB) at 2x their concentration in a 96 well plate. In parallel experiments, MIC values were determined in the media containing polysorbate 80 (0 .002%, v/v) to […]

SMILES	MIC
CC[C@H](C)[C@H](NC(=O)[C@@H](Cc1ccccc1)NC)C(=O)N[C@@H](CO)C(=O)N[C@H](CCC(N)=O)C(=O)N[C@@H](C(=O)N[C@@H](C)C(=O)N[C@@H](CO)C(=O)N[C@H]1C(=O)N[C@@H](C)C(=O)N[C@@H](CCCNC(=N)N)C(=O)N[C@@H]([C@@H](C)CC)C(=O)O[C@H]1C)[C@@H](C)CC [Compound 6, Ala6-Arg10-teixobactin] (H-[dNMeF]IS[dQ][d(aIle)]AS[dT]ARI; ester 8-C)	>128 μg mL^–1
CC[C@H](C)[C@H](NC(=O)[C@@H](C)NC(=O)[C@@H](CCC(N)=O)NC(=O)[C@H](CO)NC(=O)[C@@H](NC(=O)[C@@H](Cc1ccccc1)NC)[C@@H](C)CC)C(=O)N[C@@H](CO)C(=O)N[C@H]1C(=O)N[C@@H](C)C(=O)N[C@@H](CCCNC(=N)N)C(=O)N[C@@H]([C@@H](C)CC)C(=O)O[C@H]1C [Compound 5, D-Ala5-Arg10-teixobactin] (HELM PEPTIDE1{[CN[C@H](Cc1ccccc1)C(=O)[*:2]].I.S.[dQ].[dA].I.S.[C[C@H](O[*:3])[C@@H](N[*:1])C(=O)[*:2]].A.R.I}$PEPTIDE1,PEPTIDE1,8:R3-11:R2$$$V2.0)	64–128 μg mL^–1
CC[C@H](C)[C@H](NC(=O)[C@H](NC(=O)[C@@H](CCC(N)=O)NC(=O)[C@H](CO)NC(=O)[C@H](C)NC(=O)[C@@H](Cc1ccccc1)NC)[C@@H](C)CC)C(=O)N[C@@H](CO)C(=O)N[C@H]1C(=O)N[C@@H](C)C(=O)N[C@@H](CCCNC(=N)N)C(=O)N[C@@H]([C@@H](C)CC)C(=O)O[C@H]1C [Compound 2, Ala2-Arg10-teixobactin] (H-[dNMeF]AS[dQ][d(aIle)]IS[dT]ARI; ester 8-C)	>128 μg mL^–1
CC[C@H](C)[C@H](NC(=O)[C@@H](C)NC(C)=O)C(=O)N[C@@H](CO)C(=O)N[C@H](CCC(N)=O)C(=O)N[C@@H](C(=O)N[C@H](C(=O)N[C@@H](CO)C(=O)N[C@H]1C(=O)N[C@@H](C)C(=O)N[C@@H](CCCNC(=N)N)C(=O)N[C@@H]([C@@H](C)CC)C(=O)O[C@H]1C)[C@@H](C)CC)[C@@H](C)CC [Compound 1, Ac-D-Ala1-Arg10-teixobactin]	>128 μg mL^–1

Continued, values first:

MIC	SMILES
2–4 μg mL^–1	CC[C@H](C)[C@H](NC(=O)[C@@H](Cc1ccccc1)NC)C(=O)N[C@@H](CO)C(=O)N[C@H](C)C(=O)N[C@@H](C(=O)N[C@H](C(=O)N[C@@H](CO)C(=O)N[C@H]1C(=O)N[C@@H](C)C(=O)N[C@@H](CCCNC(=N)N)C(=O)N[C@@H]([C@@H](C)CC)C(=O)O[C@H]1C)[C@@H](C)CC)[C@@H](C)CC [Compound 4, D-Ala4-Arg10-teixobactin] (H-[dNMeF]IS[dA][d(aIle)]IS[dT]ARI; ester 8-C)
2 μg mL^–1	CC[C@H](C)[C@H](NC(=O)[C@@H](Cc1ccccc1)NC)C(=O)N[C@@H](CO)C(=O)N[C@H](CCC(N)=O)C(=O)N[C@@H](C(=O)N[C@H](C(=O)N[C@@H](CO)C(=O)N[C@H]1C(=O)N[C@@H](C)C(=O)NCC(=O)N[C@@H]([C@@H](C)CC)C(=O)O[C@H]1C)[C@@H](C)CC)[C@@H](C)CC [Compound 10, Gly10-teixobactin] (H-[dNMeF]IS[dQ][d(aIle)]IS[dT]AGI; ester 8-C)
1–2 μg mL^–1	CC[C@H](C)[C@H](NC(=O)[C@@H](Cc1ccccc1)NC)C(=O)N[C@@H](C)C(=O)N[C@H](CCC(N)=O)C(=O)N[C@@H](C(=O)N[C@H](C(=O)N[C@@H](CO)C(=O)N[C@H]1C(=O)N[C@@H](C)C(=O)N[C@@H](CCCNC(=N)N)C(=O)N[C@@H]([C@@H](C)CC)C(=O)O[C@H]1C)[C@@H](C)CC)[C@@H](C)CC [Compound 3, Ala3-Arg10-teixobactin] (H-[dNMeF]IA[dQ][d(aIle)]IS[dT]ARI; ester 8-C)
2 μg mL^–1	CC[C@H](C)[C@H](NC(=O)[C@@H](Cc1ccccc1)NC)C(=O)N[C@@H](CO)C(=O)N[C@H](CCC(N)=O)C(=O)N[C@@H](C(=O)N[C@H](C(=O)N[C@@H](CO)C(=O)N[C@H]1C(=O)N[C@@H](C)C(=O)N[C@@H](Cc2ccccc2)C(=O)N[C@@H]([C@@H](C)CC)C(=O)O[C@H]1C)[C@@H](C)CC)[C@@H](C)CC [Compound 15, Phe10-teixobactin] (H-[dNMeF]IS[dQ][d(aIle)]IS[dT]AFI; ester 8-C)
16–32 μg mL^–1	CC[C@H](C)[C@H](NC(=O)[C@@H](Cc1ccccc1)NC)C(=O)N[C@@H](CO)C(=O)N[C@H](CCC(N)=O)C(=O)N[C@@H](C(=O)N[C@H](C(=O)N[C@@H](C)C(=O)N[C@H]1C(=O)N[C@@H](C)C(=O)N[C@@H](CCCNC(=N)N)C(=O)N[C@@H]([C@@H](C)CC)C(=O)O[C@H]1C)[C@@H](C)CC)[C@@H](C)CC [Compound 7, Ala7-Arg10-teixobactin] (H-[dNMeF]IS[dQ][d(aIle)]IA[dT]ARI; ester 8-C)
32 μg mL^–1	CC[C@H](C)[C@H](NC(=O)[C@@H](Cc1ccccc1)NC)C(=O)N[C@@H](CO)C(=O)N[C@H](CCC(N)=O)C(=O)N[C@@H](C(=O)N[C@H](C(=O)N[C@@H](CO)C(=O)N[C@H]1C(=O)N[C@@H](C)C(=O)N[C@H](C)C(=O)N[C@@H]([C@@H](C)CC)C(=O)O[C@H]1C)[C@@H](C)CC)[C@@H](C)CC [Compound 9, D-Ala10-teixobactin] (H-[dNMeF]IS[dQ][d(aIle)]IS[dT]A[dA]I; ester 8-C)

Same assay, conditions: MRSA ATCC 33591; Mueller Hinton broth (Oxoid); peptides in DMSO containing 0.002% polysorbate 80; 37°C, 24 h; triplicate

SMILES	MIC
CC[C@H](C)[C@H](NC(=O)[C@@H](Cc1ccccc1)NC)C(=O)N[C@@H](CO)C(=O)N[C@H](CCC(N)=O)C(=O)N[C@@H](C(=O)N[C@H](C(=O)N[C@@H](CO)C(=O)N[C@H]1C(=O)N[C@@H](C)C(=O)N[C@@H](CO)C(=O)N[C@@H]([C@@H](C)CC)C(=O)O[C@H]1C)[C@@H](C)CC)[C@@H](C)CC [Compound 14, Ser10-teixobactin] (H-[dNMeF]IS[dQ][d(aIle)]IS[dT]ASI; ester 8-C)	16 μg mL^–1

Same assay, conditions: from MIC against MRSA ATCC 33591

SMILES	times lower antibacterial activity than Arg10-teixobactin
CC[C@H](C)[C@H](NC(=O)[C@@H](Cc1ccccc1)NC)C(=O)N[C@@H](CO)C(=O)N[C@H](CCC(N)=O)C(=O)N[C@@H](C(=O)N[C@H](C(=O)N[C@@H](CO)C(=O)N[C@H]1C(=O)N[C@@H](C)C(=O)N[C@H](C)C(=O)N[C@@H]([C@@H](C)CC)C(=O)O[C@H]1C)[C@@H](C)CC)[C@@H](C)CC [Compound 9, D-Ala10-teixobactin] (H-[dNMeF]IS[dQ][d(aIle)]IS[dT]A[dA]I; ester 8-C)	16 times
CC[C@H](C)[C@H](NC(=O)[C@@H](Cc1ccccc1)NC)C(=O)N[C@@H](CO)C(=O)N[C@H](CCC(N)=O)C(=O)N[C@@H](C(=O)N[C@H](C(=O)N[C@@H](CO)C(=O)N[C@H]1C(=O)N[C@@H](C)C(=O)N[C@@H](CO)C(=O)N[C@@H]([C@@H](C)CC)C(=O)O[C@H]1C)[C@@H](C)CC)[C@@H](C)CC [Compound 14, Ser10-teixobactin] (H-[dNMeF]IS[dQ][d(aIle)]IS[dT]ASI; ester 8-C)	8 times
